Assay results as given in patent publication US6083951A, “Aryl-substituted pyrimidine sulphonamide compounds as endothelin antagonists” (Zeneca Limited, priority 1994, dated 2000).

Columns and labels:
[1] = system: Human ETA or ETB receptors; test: Test A: inhibition of [125I]-Endothelin-1 binding to MEL cell membranes expressing recombinant receptor; details: [125I]-Endothelin-1 30 pM, receptor subtype (ETA or ETB) not stated
Source text: The endothelin receptor antagonist activity of compounds of formula I may be assessed in vitro by their ability to inhibit binding of [^125 I]-Endothelin-1 to its receptors. Human ETA or ETB receptors (sub-types of the endothelin receptor) were expressed in Mouse Erythroleukemic Cells (MEL cells) by using standard molecular techniques (for example, as described by Sambrook J., Fritsch E. F. & Maniatis T. (1989) Molecular Cloning: A Laboratory Manual, 2nd Edition, Cold Spring Harbor Press, U.S.A.). cDNA sequences encoding the human ETA and ETB receptor (Hosoda K. et al (1991), FEBS Lett., 287, 23-26 and Sakamoto A. et al, (1991), Biochem. Biophys Res. Comm., 178, 656-663) are subcloned into pBluescript vector followed by insertion into the MEL cell expression vector pEV as described by Needham et al (1992), Nuc. Acids Res., 20, 997-1003. […]
[^125 I]-Endothelin-1 binding to MEL cell membranes was measured in incubation buffer containing 50 mM Tris HCl, 1 mM CaCl2, 0.05% polyoxyethylenesorbitan monolaurate, 0.1% Bovine Serum Albumin (BSA), 0.02% sodium azide pH 7.4 at 30° C. after 180 minutes incubation. […] Nonspecific binding was measured in the presence of 100 nM unlabelled Endothelin-1. […] The filter discs were punched out and counted in a gamma counter. Compounds are tested in triplicate over a range of concentrations and IC50 (or pIC50) values calculated.

[2] = system: guinea-pig isolated taenia coli; test: Test B: inhibition of the relaxant response to endothelin-1 in isolated tissue; assay type: cell-based; details: antagonism of endothelin-1 relaxation, pA2 from concentration ratio
Experimental: The endothelin receptor antagonist activity of compounds of formula I may be assessed in vitro in isolated tissues by their ability to inhibit the relaxant response to endothelin-1 in the guinea-pig isolated taenia coli. Guinea pigs of either sex and weight >250 g are killed by cervical dislocation and the caecum removed and placed in cold oxygenated Krebs solution. Strips of Taenia coli are dissected out and approximately 4 cm lengths set up for isotonic recording in a 20 ml organ bath containing oxygenated Krebs solution at 32° C. After a 90-120 minute equilibration period to allow the tissue to spontaneously develop an increased tone, a cumulative concentration-response curve (relaxation) is constructed to endothelin-1 (0.3-10 nM). The tissue is then washed for a period of at least 90 minutes before construction of a second concentration-response curve to endothelin-1 in the presence of the test compound. The test compound is added to the organ bath (at an initial concentration of 20 μM) at least 30 minutes before constructing the second concentration-response curve to endothelin-1. The endothelin-1 concentration ratio for each experiment is determined by comparing the most parallel portions of the control and drug treated concentration-response curves. From this a pA2 is calculated: pA2 =-log[molar drug concentration]+log[concentration ratio-1].

CN(C)c1cccc2c(S(=O)(=O)Nc3ccc(Cl)nn3)cccc12 [Example 1, 5-(dimethylamino)-N-(6-chloro-3-pyridazinyl)-1-naphthalenesulphonamide] was tested, and the “pIC50 in test A” value [1] was 6.7 and the “pA2 in test B” value [2] was 6.8.
